# Assay results: publication PMC5700161, “Structure of human immunoproteasome with a reversible and noncompetitive inhibitor that selectively inhibits activated lymphocytes” (Nature Communications, 2017)
# “Also recorded” adds a separate entry of the source.
# Experiments:
# β1c = β1c (Homo sapiens, UniProt P28072); experiment: IC50 against β1c of human constitutive proteasome (Z-LLE-AMC); conditions: read-out: IC50 1c - LLE (β1c); substrate Z-LLE-AMC
# Procedure: IC50s of all compounds against β5i and β5c (Table 2) and against β1i, β2i, β1c, and β2c (Supplementary Table 1) were determined following reported methods[8].
# RPMI 8226 cells = experiment: Cytotoxicity, CellTiter-glo, RPMI 8226; format: cell-based; conditions: 72 h
# Procedure: (§1) Fig. 4 Intracellular proteasome inhibition by PKS21221 and its cytotoxicity against transformed cell lines. a Karpas 1106P lymphoma cells (white and black symbols) or HepG2 cells (blue symbols) were treated with PKS21221 for 2 h at the concentrations indicated prior to incubation with substrate (Ac-ANW)2R110 for β5i (Karpas cells) or suc-LLVY-luciferin for β5 (Karpas cells and HepG2 cells). […] Cell viability was determined by CellTiter-glo. Data are means ± SEM of three to four independent experiments
# (§2) We incubated MM.1S, RPMI 8226, Karpas and HepG2 cells with PKS21221 at different concentrations, and determined cell viability after 72 h (Fig. 4b).
# (§3) We used Karpas 1106P B lymphoma cell line (Cat. No. 06072607, Aldrich)[15],[16],[52], HepG2 (HB-8065, ATCC), MM.1S (Cat. No. CRL-2974, ATCC). Cells were cultured at 37 °C in a humidified air/5% CO2 atmosphere in medium supplemented with 10% fetal bovine serum, except for the medium for Karpas 1106P cells which contained 20% fetal bovine serum, and 100 units per ml penicillin, 100 μg per ml streptomycin in RPMI 1640 medium. Karpas 1106P was used at 80,000 cells per well, MM.1S at 100,000 cells per well, and HepG2 at 12,000 cells per well. […] Viable cells were counted using Cell-titer Glo assay kit. EC50s were calculated using PRISM (Graphpad).
# β5c in HepG2 cells = target: T1, β5c in HepG2 cells (Homo sapiens, UniProt P20618+P28074); experiment: Intracellular β5c activity in HepG2 cells, suc-LLVY-luciferin; format: cell-based
# T1 construct: host or cells: HepG2
# Procedure: To determine if this class of inhibitors is cell penetrable, we treated the B-cell lymphoma line Karpas 1106P[28] (expressing a high proportion of i-20S over c-20S) with PKS21221 before incubation with either (Ac-ANW)2-R110 (a specific substrate of β5i) or suc-LLVY-luciferin (a substrate of β5) (Fig. 4a). […] No β5i activity was detected in HepG2 cells using (Ac-ANW)2-R110 as a substrate.
# Cell viability was determined by CellTiter-glo.
# Intracellular proteasomal activity and inhibition assay were performed as reported. Karpas 1106P (80,000 cells per well) were plated and incubated with compound at indicated concentrations for 1 h at 37 °C. The activity of the overall β5 activity including β5i and β5c in each was measured in situ after compound removal with Proteasome-Glo assay kit according to manufacturer’s instructions. Luminescence was recorded on a SpectraMax M5 plate reader. Relative percentage of RLU was used to calculate the IC50s.
# [1] = system: β5(i+c) in Karpas 1106P cells; experiment: Intracellular β5(i+c) activity in Karpas 1106P cells, suc-LLVY-luciferin; format: cell-based
# Procedure: To determine if this class of inhibitors is cell penetrable, we treated the B-cell lymphoma line Karpas 1106P[28] (expressing a high proportion of i-20S over c-20S) with PKS21221 before incubation with either (Ac-ANW)2-R110 (a specific substrate of β5i) or suc-LLVY-luciferin (a substrate of β5) (Fig. 4a).
# as §1
# CD19+ non-ASCs = experiment: Apoptosis and viability of CD19+ non-ASCs in ASC differentiation culture; format: cell-based
# Procedure: (§4) The immunoproteasome plays important roles in T cell differentiation and proliferation and dendritic cell activation and maturation[14],[20],[24]. However, its role in B cell differentiation is not well understood. […] Differentiated ASCs were then exposed to PKS21221 at indicated concentrations and cell survival was determined with Annexin V and 7-aminoactinomycin D (7-AAD) at three-time points (12-h, 24-h, and 48-h after treatment). […] In addition, the cytotoxicity of PKS21221 to different cell populations in PBMC was examined and compared to the cytotoxicity of bortezomib. PBMCs were incubated with PKS21221 or bortezomib, and the viability was assessed in T cells (CD3^+), B cells (CD19^+), monocytes (CD14^+) and dendritic cells (CD3^−CD19^−CD14^−CD16^−CD11c^+HLA-DR^+), respectively (Supplementary Fig. 13b–e).
# (§5) PBMCs were cultured with or without IL-2/R848 for 5 days, followed by 12-h incubation with PKS21221 at different concentrations. a Representative flow cytometry plots of cells treated with IL-2 and R848 in the presence and absence of PKS21221. […] Annexin V^+7-AAD^− cells were referred as “Early apoptosis” population, and Annexin V^+7-AAD^+ cells were referred as “Dead” population. d Percentage of early apoptotic ASCs (left) and dead ASCs (right), after 12-h incubation with PKS21221. […]
# luciferase = experiment: Luciferase counter-test; format: biochemical; conditions: at 100 µM, tested over 0.002–100 µM
# Karpas 1106P cells = experiment: Cytotoxicity, CellTiter-glo, Karpas 1106P; conditions: read-out: EC50 Karpas, 72 h
# Procedure: as §1, §2, §3
# CD19− cells = experiment: Apoptosis and viability of CD19− cells in ASC differentiation culture; format: cell-based
# Procedure: as §4, §5
# PBMCs = experiment: Viability of total PBMCs in ASC differentiation culture (7-AAD); format: cell-based
# Procedure: as §4, §5
compound,measurement,setting,value
Cc1ccc(S(=O)(=O)N[C@@H](CC(=O)NC(C)(C)C)C(=O)NCCNC(=O)c2cc(-c3ccccc3F)ccc2F)cc1 [PKS21221],IC50,β1c,> 50000 nM
same,EC50,RPMI 8226 cells,66 ± 6 nM
same,IC50,β5c in HepG2 cells,1830 ± 138 nM
same,IC50,[1],118 ± 33 nM
same,apoptosis of CD19+ non-ASCs,CD19+ non-ASCs,slightly enhanced
same,viability of CD19+ non-ASCs,CD19+ non-ASCs,did not affect viability
same,inhibition of luciferase activity,luciferase,does not inhibit
same,EC50,Karpas 1106P cells,740 ± 145 nM
same,apoptosis of CD19− cells,CD19− cells,no increase
same,viability of CD19− cells,CD19− cells,did not affect viability
same,overall viability of PBMCs,PBMCs,not affected; also recorded: did not affect overall viability
